Where “and” joins values, the source holds several entries; their conditions need not be identical. Equal entries are not always repeated.

Data on 7 compounds can be found in paper PMC8587151, “Dibenzofuran Derivatives Inspired from Cercosporamide as Dual Inhibitors of Pim and CLK1 Kinases” (Molecules, 2021).

T1 sequence (P11309 whole entry): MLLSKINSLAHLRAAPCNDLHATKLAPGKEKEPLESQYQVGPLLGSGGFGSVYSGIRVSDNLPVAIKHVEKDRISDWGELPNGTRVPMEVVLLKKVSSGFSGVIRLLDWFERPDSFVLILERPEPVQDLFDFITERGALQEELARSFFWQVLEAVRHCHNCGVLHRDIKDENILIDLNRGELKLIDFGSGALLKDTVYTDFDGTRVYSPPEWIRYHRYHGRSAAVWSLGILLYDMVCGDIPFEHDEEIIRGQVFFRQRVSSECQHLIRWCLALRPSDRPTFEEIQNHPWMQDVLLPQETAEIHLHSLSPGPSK

The first series addresses T1, HsPim-1 (Homo sapiens, UniProt P11309).
T1 construct: made in house; host or cells: Escherichia coli BL21 DE3 pLysS
As to the kind of experiment: Kinase assay, luminescent ADP-Glo, 10 µM ATP. The series is classed as biochemical. Particulars: Table 1; ADP-Glo, 10 µM ATP, duplicate; read-out: Kinase Enzymatic IC50 Pim-1. As to the method:
The synthesized compounds were tested using a luminescence-based assay against a panel of nine kinases: Pim-1, Pim-2, CDK5/p25, CDK9/CyclinT, Haspin, CK1ε, and GSK3β (from human); DYRK1A (from Rattus norvegicus); and CLK1 (from Mus musculus).
Kinase enzymatic activities were assayed with 10 µM ATP in 384-well plates using the luminescent ADP-Glo^TM assay (Promega, Madison, WI, USA) according to the recommendations of the manufacturer (see [56] for details on this method). The transmitted signal was measured using the Envision (PerkinElmer, Waltham, MA, USA) microplate luminometer and expressed in relative light unit (RLU). In order to determine the half maximal inhibitory concentration (IC50), the assays were performed in duplicate in the absence or presence of increasing doses of the tested compounds. GraphPad Prism6 software (GraphPad Software, San Diego, CA, USA) was used to fit dose–response curves and to determine the IC50 values. Kinase activities are expressed in % of maximal activity, i.e., measured in the absence of inhibitor. Peptide substrates were obtained from Proteogenix (Schiltigheim, France).
For kinases expressed in bacteria, the Escherichia coli BL21 DE3 pLysS strain (Invitrogen, ThermoFisher Scientific, Waltham, MA, USA) was transformed with pGEX-2T-1 (Sigma-Aldrich, St. Louis, MO, USA) containing the coding region of the corresponding kinase. For kinases expressed in Sf9 insect cells, the coding region of the corresponding kinase was cloned in pFastBac^TM vector. Purification of the recombinant kinases was performed following the protocol “Bac-to-Bac® Baculovirus Expression System” provided by the manufacturer (Invitrogen, ThermoFisher Scientific, Waltham, MA, USA).
To validate the kinase assay, model inhibitors were used for each tested enzyme: Staurosporine from Streptomyces sp. (#S5921, purity ≥ 95%, Sigma-Aldrich) for HsCK1ε; Indirubin-30-oxime (#I0404, purity ≥ 98%, Sigma-Aldrich) for HsGSK-3β, HsPim-1 and 2, human cyclin-dependent kinases, RnDYRK1A and MmCLK1; CHR-6494 (#SML0648, purity ≥ 98%, Sigma-Aldrich) for Haspin.
Regarding `COc1cc(OC)c2c(oc3ccccc32)c1C(N)=O` [Compound 19, 1,3-Dimethoxydibenzo[b,d]furan-4-carboxamide], the 50% inhibitory concentration (IC50) was over 10 µM.

Take `COc1cc2oc3c(C(N)=O)c(OC)cc(OC)c3c2cc1C(C)=O` [Compound 38, 8-Acetyl-1,3,7-trimethoxydibenzo[b,d]furan-4-carboxamide]: the IC50 was over 10 µM.

Turning to `COc1ccc2c(c1)oc1c(C(N)=O)c(OC)cc(OC)c12` [Compound 39, 1,3,7-Trimethoxydibenzo[b,d]furan-4-carboxamide], the IC50 is over 10 µM.

As to `COc1cc(OC)c2c(oc3ccc(C(C)=O)cc32)c1C(N)=O` [Compound 40, 8-Acetyl-1,3-dimethoxydibenzo[b,d]furan-4-carboxamide], the IC50 is over 10 µM.

`COc1cc(OC)c2c(oc3ccc(C(F)(F)F)cc32)c1C(N)=O` [Compound 42, 1,3-Dimethoxy-8-(trifluoromethyl)dibenzo[b,d]furan-4-carboxamide]: the IC50 was over 10 µM.

Consider `NC(=O)c1c(O)cc(O)c2c1oc1ccc(C(F)(F)F)cc12` [Compound 47, 1,3-Dihydroxy-8-(trifluoromethyl)dibenzo[b,d]furan-4-carboxamide], for which the IC50 is > 1 µM and 2.35 µM.

Staying with this series, now noted: Table 2; ADP-Glo, 10 µM ATP, mean of n ≥ 3; read-out: IC50 Pim-1.
Turning to `NC(=O)c1c(O)cc(O)c2c1oc1ccc(C(F)(F)F)cc12` [Compound 47, 1,3-Dihydroxy-8-(trifluoromethyl)dibenzo[b,d]furan-4-carboxamide], the 50% inhibitory concentration (IC50) is 2.35 µM.

Test system in another series: not given
Assay: not given
Conditions: not given
For the compound `COc1cc(OC)c2c(oc3ccccc32)c1C(N)=O` [Compound 19, 1,3-Dimethoxydibenzo[b,d]furan-4-carboxamide], the melting point lay within 296 to 297 °C.

`COc1ccc2c(c1)oc1c(C(N)=O)c(OC)cc(OC)c12` [Compound 39, 1,3,7-Trimethoxydibenzo[b,d]furan-4-carboxamide] displayed a melting point of 332 to 333 °C.

Regarding `COc1cc(OC)c2c(oc3ccc(C(C)=O)cc32)c1C(N)=O` [Compound 40, 8-Acetyl-1,3-dimethoxydibenzo[b,d]furan-4-carboxamide], the melting point is 237 to 238 °C.

`COc1cc(OC)c2c(oc3ccc(C(F)(F)F)cc32)c1C(N)=O` [Compound 42, 1,3-Dimethoxy-8-(trifluoromethyl)dibenzo[b,d]furan-4-carboxamide] yielded a melting point of 250 to 251 °C.

Consider `NC(=O)c1c(O)cc(O)c2c1oc1ccc(C(F)(F)F)cc12` [Compound 47, 1,3-Dihydroxy-8-(trifluoromethyl)dibenzo[b,d]furan-4-carboxamide], for which the melting point is 347 to 348 °C.

Another series concerns KU812 cells. Kind of series: MTT cell proliferation assay. Format: cell-based. Particulars: Homo sapiens, 48 h, mean ± SEM. The text has this:
(§1) Various types of hematological malignancies were selected for in vitro testing: the human acute myeloid leukemia (AML) cell line MV4-11, and the human chronic myeloid leukemia (CML) cell lines KU812 and K562. Indeed, Pim kinases are overexpressed in a wide range of hematopoietic malignancies. Solid tumors were also included in the panel of tested cell lines: MCF-7 (human breast adenocarcinoma), HT-29 (human colon adenocarcinoma), and HeLa (human cervical cancer) cells. Cytotoxic effects were evaluated using an MTT assay, and living cells were also counted with the trypan blue dye exclusion method for MV4-11, KU812, and K562 cells.
(§2) MV4-11, K562, and KU812 cell lines were obtained from the Deutshe Sammlung von Mikroorganismens und Zellkulturen (DSMZ) and maintained according to the supplier’s recommendations. All cell lines were cultured in RPMI, with 10% fetal bovine serum, 1% glutamine, and 1% penicillin/ streptomycin at 37 °C and 5% CO2.
(§3) MV4-11, K562, and KU812 cells’ viability was studied using a MTT cell proliferation assay.
(§4) MV4-11, K562, and KU812 cells were incubated with 10 μL of MTT working solution (5 g/L of methylthiazolyldiphenyl-tetrazolium bromide from Sigma Aldrich, Lyon, France) for 4 h. Cells were then lysed overnight at 37 °C with 100 μL of 10% SDS and 0.003% HCl. Optical density (OD) at 570 nm was measured using a spectrophotometer CLARIOstar® (BMG Labtech, Offenburg, Germany). Living cells were also counted with the trypan blue dye exclusion method. […] Data were collected from at least three independent experiments and the values reported are means ± standard errors of the mean (SEM).
Regarding `NC(=O)c1c(O)cc(O)c2c1oc1ccc(C(F)(F)F)cc12` [Compound 47, 1,3-Dihydroxy-8-(trifluoromethyl)dibenzo[b,d]furan-4-carboxamide], the IC50 is over 100 µM.

The compound `CN1CCC(CNc2ccc3ncc(-c4cccc(OC(F)(F)F)c4)n3n2)CC1` [SGI-1776, reference compound] gave a half-maximal inhibitory concentration (IC50) of 3.5 ± 0.6 µM.

In another series the test system is K562 cells. Kind of series: MTT cell proliferation assay. Format: cell-based. Particulars: Homo sapiens, 48 h, mean ± SEM.
Source text: as §1, §2, §3, §4
In turn, `NC(=O)c1c(O)cc(O)c2c1oc1ccc(C(F)(F)F)cc12` [Compound 47, 1,3-Dihydroxy-8-(trifluoromethyl)dibenzo[b,d]furan-4-carboxamide] had an IC50 of over 100 µM.

Compound `CN1CCC(CNc2ccc3ncc(-c4cccc(OC(F)(F)F)c4)n3n2)CC1` [SGI-1776, reference compound] displayed an IC50 of 3.7 ± 1.5 µM.

Another series relates to MV4-11 cells. Kind of series: MTT cell proliferation assay. The note with it: 48 h, mean ± SEM. Format: cell-based, human.
Source text: as §1, §2, §3, §4
As for `NC(=O)c1c(O)cc(O)c2c1oc1ccc(C(F)(F)F)cc12` [Compound 47, 1,3-Dihydroxy-8-(trifluoromethyl)dibenzo[b,d]furan-4-carboxamide], the “IC50 MV4-11” value was “inactive”.

The same series, now with this note: Homo sapiens, MV4-11, 48 h, mean ± SEM.
The compound `NC(=O)c1c(O)cc(O)c2c1oc1ccc(C(F)(F)F)cc12` [Compound 47, 1,3-Dihydroxy-8-(trifluoromethyl)dibenzo[b,d]furan-4-carboxamide] had a half-inhibitory concentration (IC50) of over 100 µM.

Regarding `CN1CCC(CNc2ccc3ncc(-c4cccc(OC(F)(F)F)c4)n3n2)CC1` [SGI-1776, reference compound], the midpoint of inhibition, the IC50, lay at 0.03 ± 0.003 µM.
